In ChEMBL document CHEMBL3046451, “Design, synthesis, characterization, and in vitro antimicrobial action of novel trisubstituted s-triazines” (2012):
Converted amounts (≈) assume the structure as drawn.

What follows are compounds tested on Candida albicans (assay: Antifungal activity against Candida albicans MTCC 183 after 48 hr by agar streak dilution method). Conditions: MTCC 183, 48 h.
Assay type: functional
`Cn1c(=O)cc(Oc2nc(Nc3ccc(C#N)cc3)nc(NC3CC3)n2)c2ccccc21` was tested, and the MIC was 50 µg/mL (≈ 118 µM).
`CCCCNc1nc(Nc2ccc(C#N)cc2)nc(Oc2cc(=O)n(C)c3ccccc23)n1` was tested, and the MIC was 50 µg/mL (≈ 113 µM).
For `Cn1c(=O)cc(Oc2nc(Nc3ccc(C#N)cc3)nc(NC3CCCCC3)n2)c2ccccc21`, the MIC was 50 µg/mL (≈ 107 µM).

What follows are compounds tested on Aspergillus niger (assay: Antifungal activity against Aspergillus niger MTCC 282 after 48 hr by agar streak dilution method). Conditions: MTCC 282, 48 h.
Assay type: functional
With `Cn1c(=O)cc(Oc2nc(Nc3ccc(C#N)cc3)nc(NC3CC3)n2)c2ccccc21` the MIC was 50 µg/mL (≈ 118 µM).
`CCCCNc1nc(Nc2ccc(C#N)cc2)nc(Oc2cc(=O)n(C)c3ccccc23)n1` showed an MIC greater than 50 µg/mL.
`Cn1c(=O)cc(Oc2nc(Nc3ccc(C#N)cc3)nc(NC3CCCCC3)n2)c2ccccc21` was tested, and the MIC was 50 µg/mL (≈ 107 µM).

The compounds below were run on Candida albicans (assay: Antifungal activity against Candida albicans MTCC 183 after 24 hr by paper disk diffusion method). Conditions: not given.
Assay type: functional
With `Cn1c(=O)cc(Oc2nc(Nc3ccc(C#N)cc3)nc(NC3CC3)n2)c2ccccc21` the “inhibition zone (IZ)” value was 8 mm.
With `CCCCNc1nc(Nc2ccc(C#N)cc2)nc(Oc2cc(=O)n(C)c3ccccc23)n1` the “inhibition zone (IZ)” value was 6 mm.
In the case of `Cn1c(=O)cc(Oc2nc(Nc3ccc(C#N)cc3)nc(NC3CCCCC3)n2)c2ccccc21`, the “inhibition zone (IZ)” value is reported as 10 mm.

These compounds were tested on Aspergillus niger (assay: Antifungal activity against Aspergillus niger MTCC 282 after 24 hr by paper disk diffusion method). Conditions: not given.
Assay type: functional
For `Cn1c(=O)cc(Oc2nc(Nc3ccc(C#N)cc3)nc(NC3CC3)n2)c2ccccc21`, the “inhibition zone (IZ)” value was 10 mm.
With `CCCCNc1nc(Nc2ccc(C#N)cc2)nc(Oc2cc(=O)n(C)c3ccccc23)n1` the “inhibition zone (IZ)” value was less than 5 mm.
`Cn1c(=O)cc(Oc2nc(Nc3ccc(C#N)cc3)nc(NC3CCCCC3)n2)c2ccccc21` was tested, and the “inhibition zone (IZ)” value was 9 mm.

These compounds were tested on Shigella flexneri (assay: Antibacterial activity against Shigella flexneri MTCC 1457 after 24 hr by agar streak dilution method). Conditions: MTCC 1457, 24 h.
Assay type: functional
`Cn1c(=O)cc(Oc2nc(Nc3ccc(C#N)cc3)nc(NC3CC3)n2)c2ccccc21` gave an MIC of 50 µg/mL (≈ 118 µM).
`CCCCNc1nc(Nc2ccc(C#N)cc2)nc(Oc2cc(=O)n(C)c3ccccc23)n1` gave an MIC of 50 µg/mL (≈ 113 µM).
In the case of `Cn1c(=O)cc(Oc2nc(Nc3ccc(C#N)cc3)nc(NC3CCCCC3)n2)c2ccccc21`, the MIC is reported as 50 µg/mL (≈ 107 µM).

What follows are compounds tested on Proteus vulgaris (assay: Antibacterial activity against Proteus vulgaris MTCC 1771 after 24 hr by agar streak dilution method). Conditions: MTCC 1771, 24 h.
Assay type: functional
`Cn1c(=O)cc(Oc2nc(Nc3ccc(C#N)cc3)nc(NC3CC3)n2)c2ccccc21` showed an MIC of 50 µg/mL (≈ 118 µM).
With `CCCCNc1nc(Nc2ccc(C#N)cc2)nc(Oc2cc(=O)n(C)c3ccccc23)n1` the MIC was 50 µg/mL (≈ 113 µM).
In the case of `Cn1c(=O)cc(Oc2nc(Nc3ccc(C#N)cc3)nc(NC3CCCCC3)n2)c2ccccc21`, the MIC is reported as 50 µg/mL (≈ 107 µM).

These compounds were tested on Salmonella typhi (assay: Antibacterial activity against Salmonella enterica subsp. enterica serovar Typhi MTCC 733 after 24 hr by agar streak dilution method). Conditions: MTCC 733, 24 h.
Assay type: functional
For `Cn1c(=O)cc(Oc2nc(Nc3ccc(C#N)cc3)nc(NC3CC3)n2)c2ccccc21`, the MIC was 50 µg/mL (≈ 118 µM).
`CCCCNc1nc(Nc2ccc(C#N)cc2)nc(Oc2cc(=O)n(C)c3ccccc23)n1` was tested, and the MIC was 50 µg/mL (≈ 113 µM).
Work on `Cn1c(=O)cc(Oc2nc(Nc3ccc(C#N)cc3)nc(NC3CCCCC3)n2)c2ccccc21` yielded an MIC of 50 µg/mL (≈ 107 µM).

The compounds below were run on Klebsiella pneumoniae (assay: Antibacterial activity against Klebsiella pneumoniae MTCC 109 after 24 hr by agar streak dilution method). Conditions: MTCC 109, 24 h.
Assay type: functional
`Cn1c(=O)cc(Oc2nc(Nc3ccc(C#N)cc3)nc(NC3CC3)n2)c2ccccc21` was tested, and the MIC was 25 µg/mL (≈ 58.8 µM).
`CCCCNc1nc(Nc2ccc(C#N)cc2)nc(Oc2cc(=O)n(C)c3ccccc23)n1` was tested, and the MIC was 50 µg/mL (≈ 113 µM).
With `Cn1c(=O)cc(Oc2nc(Nc3ccc(C#N)cc3)nc(NC3CCCCC3)n2)c2ccccc21` the MIC was 12.5 µg/mL (≈ 26.7 µM).

The compounds below were run on Pseudomonas aeruginosa (assay: Antibacterial activity against Pseudomonas aeruginosa MTCC 741 after 24 hr by agar streak dilution method). Conditions: MTCC 741, 24 h.
Assay type: functional
With `Cn1c(=O)cc(Oc2nc(Nc3ccc(C#N)cc3)nc(NC3CC3)n2)c2ccccc21` the MIC was 50 µg/mL (≈ 118 µM).
`CCCCNc1nc(Nc2ccc(C#N)cc2)nc(Oc2cc(=O)n(C)c3ccccc23)n1` showed an MIC of 25 µg/mL (≈ 56.6 µM).
`Cn1c(=O)cc(Oc2nc(Nc3ccc(C#N)cc3)nc(NC3CCCCC3)n2)c2ccccc21` was tested, and the MIC was 50 µg/mL (≈ 107 µM).

The compounds below were run on Escherichia coli (assay: Antibacterial activity against Escherichia coli MTCC 739 after 24 hr by agar streak dilution method). Conditions: MTCC 739, 24 h.
Assay type: functional
`Cn1c(=O)cc(Oc2nc(Nc3ccc(C#N)cc3)nc(NC3CC3)n2)c2ccccc21` gave an MIC of 50 µg/mL (≈ 118 µM).
In the case of `CCCCNc1nc(Nc2ccc(C#N)cc2)nc(Oc2cc(=O)n(C)c3ccccc23)n1`, the MIC is reported as 50 µg/mL (≈ 113 µM).
With `Cn1c(=O)cc(Oc2nc(Nc3ccc(C#N)cc3)nc(NC3CCCCC3)n2)c2ccccc21` the MIC was 50 µg/mL (≈ 107 µM).

The compounds below were run on Bacillus cereus (assay: Antibacterial activity against Bacillus cereus MTCC 619 after 24 hr by agar streak dilution method). Conditions: MTCC 619, 24 h.
Assay type: functional
`Cn1c(=O)cc(Oc2nc(Nc3ccc(C#N)cc3)nc(NC3CC3)n2)c2ccccc21` was tested, and the MIC was 25 µg/mL (≈ 58.8 µM).
For `CCCCNc1nc(Nc2ccc(C#N)cc2)nc(Oc2cc(=O)n(C)c3ccccc23)n1`, the MIC was 50 µg/mL (≈ 113 µM).
`Cn1c(=O)cc(Oc2nc(Nc3ccc(C#N)cc3)nc(NC3CCCCC3)n2)c2ccccc21` was tested, and the MIC was 50 µg/mL (≈ 107 µM).

What follows are compounds tested on Staphylococcus aureus (assay: Antibacterial activity against Staphylococcus aureus MTCC 96 after 24 hr by agar streak dilution method). Conditions: MTCC 96, 24 h.
Assay type: functional
`Cn1c(=O)cc(Oc2nc(Nc3ccc(C#N)cc3)nc(NC3CC3)n2)c2ccccc21` was tested, and the MIC was 50 µg/mL (≈ 118 µM).
`CCCCNc1nc(Nc2ccc(C#N)cc2)nc(Oc2cc(=O)n(C)c3ccccc23)n1` showed an MIC of 50 µg/mL (≈ 113 µM).
In the case of `Cn1c(=O)cc(Oc2nc(Nc3ccc(C#N)cc3)nc(NC3CCCCC3)n2)c2ccccc21`, the MIC is reported as 6.25 µg/mL (≈ 13.4 µM).

Each compound was assayed on Shigella flexneri (assay: Antibacterial activity against Shigella flexneri MTCC 1457 after 24 hr by paper disk diffusion method). Conditions: not given.
Assay type: functional
For `Cn1c(=O)cc(Oc2nc(Nc3ccc(C#N)cc3)nc(NC3CC3)n2)c2ccccc21`, the “inhibition zone (IZ)” value was less than 5 mm.
In the case of `CCCCNc1nc(Nc2ccc(C#N)cc2)nc(Oc2cc(=O)n(C)c3ccccc23)n1`, the “inhibition zone (IZ)” value is reported as 7 mm.
With `Cn1c(=O)cc(Oc2nc(Nc3ccc(C#N)cc3)nc(NC3CCCCC3)n2)c2ccccc21` the “inhibition zone (IZ)” value was 9 mm.

The compounds below were run on Proteus vulgaris (assay: Antibacterial activity against Proteus vulgaris MTCC 1771 after 24 hr by paper disk diffusion method). Conditions: not given.
Assay type: functional
For `Cn1c(=O)cc(Oc2nc(Nc3ccc(C#N)cc3)nc(NC3CC3)n2)c2ccccc21`, the “inhibition zone (IZ)” value was 8 mm.
`CCCCNc1nc(Nc2ccc(C#N)cc2)nc(Oc2cc(=O)n(C)c3ccccc23)n1` was tested, and the “inhibition zone (IZ)” value was less than 5 mm.
In the case of `Cn1c(=O)cc(Oc2nc(Nc3ccc(C#N)cc3)nc(NC3CCCCC3)n2)c2ccccc21`, the “inhibition zone (IZ)” value is reported as 7 mm.

Each compound was assayed on Salmonella typhi (assay: Antibacterial activity against Salmonella enterica subsp. enterica serovar Typhi MTCC 733 after 24 hr by paper disk diffusion method). Conditions: not given.
Assay type: functional
For `Cn1c(=O)cc(Oc2nc(Nc3ccc(C#N)cc3)nc(NC3CC3)n2)c2ccccc21`, the “inhibition zone (IZ)” value was less than 5 mm.
For `CCCCNc1nc(Nc2ccc(C#N)cc2)nc(Oc2cc(=O)n(C)c3ccccc23)n1`, the “inhibition zone (IZ)” value was 6 mm.
In the case of `Cn1c(=O)cc(Oc2nc(Nc3ccc(C#N)cc3)nc(NC3CCCCC3)n2)c2ccccc21`, the “inhibition zone (IZ)” value is reported as less than 5 mm.

The compounds below were run on Klebsiella pneumoniae (assay: Antibacterial activity against Klebsiella pneumoniae MTCC 109 after 24 hr by paper disk diffusion method). Conditions: not given.
Assay type: functional
For `Cn1c(=O)cc(Oc2nc(Nc3ccc(C#N)cc3)nc(NC3CC3)n2)c2ccccc21`, the “inhibition zone (IZ)” value was 11 mm.
For `Cn1c(=O)cc(Oc2nc(Nc3ccc(C#N)cc3)nc(NC3CCCCC3)n2)c2ccccc21`, the “inhibition zone (IZ)” value was 13 mm.

Each compound was assayed on Pseudomonas aeruginosa (assay: Antibacterial activity against Pseudomonas aeruginosa MTCC 741 after 24 hr by paper disk diffusion method). Conditions: not given.
Assay type: functional
`Cn1c(=O)cc(Oc2nc(Nc3ccc(C#N)cc3)nc(NC3CC3)n2)c2ccccc21` was tested, and the “inhibition zone (IZ)” value was 6 mm.
With `CCCCNc1nc(Nc2ccc(C#N)cc2)nc(Oc2cc(=O)n(C)c3ccccc23)n1` the “inhibition zone (IZ)” value was 11 mm.
For `Cn1c(=O)cc(Oc2nc(Nc3ccc(C#N)cc3)nc(NC3CCCCC3)n2)c2ccccc21`, the “inhibition zone (IZ)” value was less than 5 mm.

The compounds below were run on Escherichia coli (assay: Antibacterial activity against Escherichia coli MTCC 739 after 24 hr by paper disk diffusion method). Conditions: not given.
Assay type: functional
For `Cn1c(=O)cc(Oc2nc(Nc3ccc(C#N)cc3)nc(NC3CC3)n2)c2ccccc21`, the “inhibition zone (IZ)” value was 7 mm.
In the case of `CCCCNc1nc(Nc2ccc(C#N)cc2)nc(Oc2cc(=O)n(C)c3ccccc23)n1`, the “inhibition zone (IZ)” value is reported as less than 5 mm.
For `Cn1c(=O)cc(Oc2nc(Nc3ccc(C#N)cc3)nc(NC3CCCCC3)n2)c2ccccc21`, the “inhibition zone (IZ)” value was 8 mm.

What follows are compounds tested on Bacillus cereus (assay: Antibacterial activity against Bacillus cereus MTCC 619 after 24 hr by paper disk diffusion method). Conditions: not given.
Assay type: functional
In the case of `Cn1c(=O)cc(Oc2nc(Nc3ccc(C#N)cc3)nc(NC3CC3)n2)c2ccccc21`, the “inhibition zone (IZ)” value is reported as 11 mm.
`CCCCNc1nc(Nc2ccc(C#N)cc2)nc(Oc2cc(=O)n(C)c3ccccc23)n1` was tested, and the “inhibition zone (IZ)” value was 8 mm.
For `Cn1c(=O)cc(Oc2nc(Nc3ccc(C#N)cc3)nc(NC3CCCCC3)n2)c2ccccc21`, the “inhibition zone (IZ)” value was 10 mm.

The compounds below were run on Staphylococcus aureus (assay: Antibacterial activity against Staphylococcus aureus MTCC 96 after 24 hr by paper disk diffusion method). Conditions: not given.
Assay type: functional
For `Cn1c(=O)cc(Oc2nc(Nc3ccc(C#N)cc3)nc(NC3CC3)n2)c2ccccc21`, the “inhibition zone (IZ)” value was less than 5 mm.
In the case of `CCCCNc1nc(Nc2ccc(C#N)cc2)nc(Oc2cc(=O)n(C)c3ccccc23)n1`, the “inhibition zone (IZ)” value is reported as 12 mm.
In the case of `Cn1c(=O)cc(Oc2nc(Nc3ccc(C#N)cc3)nc(NC3CCCCC3)n2)c2ccccc21`, the “inhibition zone (IZ)” value is reported as 14 mm.
